Legend:
Assay type in all cases: cell-based, C57BL/6 mice
[1] = test system: ENR+CD organoids; assay: Flow cytometry analysis, 3D culture, XPO1 inhibitors; conditions: 6-day ENR+CD organoids
Protocol: ISC-enriched organoids cultured in 3D Matrigel with ENRCV media were passaged to 24-well plate in 3D Matrigel with ENRCV. At day zero, media were replaced to ENRCD with or without indicated compounds, and media were replaced every other day. At day six, cells were washed with basal media, and then harvested from Matrigel by mechanical disruption in TrypLE Express (ThermoFisher, 12605010) to remove Matrigel and dissociate organoids to single cells. After vigorous pipetting and incubation at 37° C. for 20 min, dissociated organoids were strained through a 35 μm cell strainer into a tube (Falcon, 352235). The cell filtrate was centrifuged again at 300×g for 3 min at 4° C. to pellet the cells. Cell pellets were resuspended in FACS buffer (2% FBS in PBS), and then transferred to an ultra low-bind 96-well plate (Corning, 7007). Cells were stained with Zombie-violet viability dye (BioLegend, 423107) at 100× for viability staining and/or antibody staining solution. FITC-conjugated antibody for lysozyme (Dako, […]) and APC-conjugated antibody for CD24 (BioLegend, 138505) were used at 100× dilution. Flow cytometry was performed using an LSR Fortessa (BD; Koch Institute Flow Cytometry Core at MIT). The data were analyzed using FlowJo v10 software.

[2] = test system: organoids differentiated under ENR+CV, ENR+CD, or ENR; assay: Western blotting for LYZ in organoids; conditions: six days in ENR+CV
Source text: ISC-enriched organoids cultured in 3D Matrigel with ENRCV media were passaged to 24-well plate in 3D Matrigel with ENRCV. At day zero, media were replaced to ENR or ENRCD with or without indicated compounds, and media were replaced every other day. At day six, cells were harvested from Matrigel by mechanical disruption and suspended in basal media. Cell pellets were lysed with Pierce® IP lysis buffer (ThermoFisher, 87787) containing Halt™ Protease Inhibitor Cocktail, EDTA-Free (ThermoFisher, 87785) after 3-minute centrifuge at 300×g at 4° C. Cell extracts were resolved by NuPAGE® SDS-PAGE Gel system (ThermoFisher) and electroblotted onto polyvinylidene difluoride membranes using Criterion™ Blotter (Biorad). The membranes were blocked with 2% Blotting-Grade Blocker (Biorad, 1706404) in TBS-T (50 mM Tris-HCl, 150 mM NaCl, and 0.1% Tween 20, pH 8.0) and then probed with appropriate antibodies. Detection was performed using ECL Select™ Western Blotting Detection Reagent (Amersham, 45-000-999) and ImageQuant LAS4000 (GE Healthcare).

[3] = test system: ENR+CD and ENR organoid populations; assay: Population RNA-seq of organoids; conditions: 3 days of treatment, all media conditions controlled, FDR<0.01
Source text: To further assess the potential interaction of Wnt agonist CHIR99021 (C) and Notch inhibitor DAPT (D) with XPO1 inhibitors, we carried out an experiment where we assessed bulk organoid population transcriptomes (with RNA-seq) from multiple variations on growth media, XPO1 inhibitor, and duration of treatment (FIG. 12A). To characterize the resulting cell phenotypes, we used aggregate scores of geneset enrichment (based on module scoring as implemented in^7) from the in vivo Paneth and related enteroendocrine cell populations (genesets taken from^6). We see that again for both ENR+CD treated (FIG. 12B) and ENR treated (FIG. 12C) organoid populations, XPO1 inhibition drives enrichment in Paneth cell defining genes, principally at 3 days of treatment. […]
Population RNA-seq was performed using a derivative of the Smart-Seq2 protocol for single cells^1,2. […] Libraries were pooled post-Nextera and cleaned using Agencourt AMPure SPRI beads with successive 0.7× and 0.8× ratio SPRIs and sequenced with an Illumina 75 Cycle NextSeq500/550v2 kit (Illumina FC-404-2005) with loading density at 2.2 pM, with paired end 35 cycle read structure. Samples were sequenced at an average read depth of 8.44 million reads per sample and a total of 96 samples. […]

[4] = test system: ISC-enriched organoids in ENR+CD; assay: 384-well secondary screen in ENR+CD incl. early vs. full treatment, secreted LYZ (LYZ.NS, LYZ.S)
Source text: (§1) We again assessed treatment effect size with replicate SSMD (using a difference between well replicates and median assay value for all same-plate control wells—see Materials and Methods, High-throughput screening: 384-well secondary screen format and early vs. full treatment analysis) and hits were considered statistically validated by an SSMD greater than the false-positive-derived cutoffs (βα1=0.89 for 8 replicates with alpha=0.05; see Materials and Methods, High-throughput screening: 384-well secondary screen format and early vs. full treatment analysis) for both LYZ.NS and LYZ.S assays (FIG. 7A). Per this new cutoff, 10 dose-treatment combinations corresponding to 7 small molecules were chosen as hits, with every passing dose-treatment having a greater than 0 ATP effect size.
For 384-well plate high-throughput screening, ISC-enriched organoids were passaged and split to single cells with TyrpLE (Thermo Fisher Scientific) and cultured for 2-3 days in ENR+CVY prior to transfer to a “2.5-D” 384-well plate culture system. To prepare for “2.5D” plating, cell-laden Matrigel and media were homogenized via mechanical disruption and centrifuged at 300 g for 3 min at 4° C. Supernatant was removed and the pellet washed and spun in basal culture medium repeatedly until the cloudy Matrigel above the cell pellet was gone. On the final wash, pellet was resuspended in basal culture medium, the number of organoids counted, and the cell pellet was resuspended in ENR+CD medium at ˜7 clusters/μL. 384-well plates were first filled with 10 μL of 70% Matrigel (30% basal media) coating in each well using a Tecan Evo 150 Liquid Handling Deck, and allowed to gel at 37° C. for 5 minutes. Then 30 μL of cell-laden media was plated at the center of each well of 384-well plates with the liquid handler, and the plates were spun down at 50 g for 1 minute to embed organoids on the Matrigel surface. Compound libraries were pinned into prepped cell plates using 50 nL pins into 30 μL media/well. Cells were cultured at 37° C. with 5% CO2 for six days in ENR+CD medium supplemented with the tested compounds with a media change at three days. On day six, lysozyme secretion and cell viability were assessed using Lysozyme Assay Kit (EnzChek) and CellTiter-Glo 3D Cell Viability Assay (Promega), respectively, according to the manufacturers' protocols. Briefly, screen plates were washed 3× with FluoroBrite basal media (2 mM GlutaMAX and 10 mM HEPES in FluoroBrite DMEM (Thermo Fisher Scientific)) using a BioTek 406 plate washer with 10 min incubations followed by a 1 min centrifugation at 200 g to settle media between washes. After removal of the third wash, 30 μL of non-stimulated FluoroBrite basal media was added to each screen well using a Tecan Evo 150 Liquid Handling Deck from a non-stimulated treatment master plate, and plates were incubated for 30 min at 37° C. After 30 minutes, the top 15 μL of media from each well of the screen plate was transferred to a non-stimulated LYZ assay plate containing 15 μL of 20× DQ LYZ assay working solution using a Tecan Evo 150 Liquid Handling Deck. The non-stimulated LYZ assay plate was covered, shaken for 10 min, incubated for 50 min at 37° C., then fluorescence measured (shake 10 s; […]/518 nm) using a Tecan M1000 Plate Reader. After the media transfer to the non-stimulated LYZ assay plate, the remaining media was removed from the screen plate and 30 μL of Stimulated FluoroBrite basal media (supplemented with 10 μM CCh) was added to each screen well using a Tecan Evo 150 Liquid Handling Deck from a stimulated treatment master plate, and plates were incubated for 30 min at 37° C. After 30 minutes, the top 15 μL of media from each well of the screen plate was transferred to a stimulated LYZ assay plate containing 15 μL of 20× DQ LYZ assay working solution using a Tecan Evo 150 Liquid Handling Deck. […]

[5] = test system: ISC-enriched organoids in ENR+CD; assay: 384-well secondary screen in ENR+CD, ATP assay; conditions: 100 nM
Source text: as §1, with “Per this new cutoff, 10 dose-treatment combinations corresponding to 7 small molecules were chosen as hits, with every passing dose-treatment having a greater than 0 ATP effect size.” left out
For 384-well plate high-throughput screening, ISC-enriched organoids were passaged and split to single cells with TyrpLE (Thermo Fisher Scientific) and cultured for 2-3 days in ENR+CVY prior to transfer to a “2.5-D” 384-well plate culture system. […] On the final wash, pellet was resuspended in basal culture medium, the number of organoids counted, and the cell pellet was resuspended in ENR+CD medium at ˜7 clusters/μL. […] On day six, lysozyme secretion and cell viability were assessed using Lysozyme Assay Kit (EnzChek) and CellTiter-Glo 3D Cell Viability Assay (Promega), respectively, according to the manufacturers' protocols. […]

[6] = test system: conventional organoid (ENR); assay: 384-well screen in conventional organoid (ENR), secreted LYZ (LYZ.NS, LYZ.S); conditions: 6-day ENR+treatment, single treatment-dose

With `NC(=O)/C(=C/n1cnc(-c2cc(C(F)(F)F)cc(C(F)(F)F)c2)n1)c1cncnc1` [KPT-8602] the “Paneth cell representation by flow cytometry” value [1] was “statistically significant increases in Paneth cell representation”, the “LYZ abundance on a per-mass protein normalized basis (western blot)” value [2] was “appreciably increase LYZ abundance” and the “identity of the majority of significantly up-regulated genes relative to no treatment (DESeq2)” value [3] was “known Paneth cell lineage-defining genes”.

In the case of `Cc1[nH]c(/C=C2\C(=O)Nc3ccc(S(=O)(=O)Cc4c(Cl)cccc4Cl)cc32)c(C)c1C(=O)N1CCC[C@@H]1CN1CCCC1` [PHA-665752], the “validation in secondary screen (SSMD above cutoff for both LYZ.NS and LYZ.S)” value ([4]; 6-day ENR+CD+treatment vs ENR+CD+DMSO, cutoff 0.89, 8 replicates) is reported as “multiple validated doses”, the “LYZ.NS/ATP, early versus full treatment” value ([4]; ENR+CD, 100 nM) is reported as “significant difference (adj. p<0.05) between early and full” and the “LYZ.S/ATP, early versus full treatment” value ([4]; ENR+CD, 100 nM) is reported as “suggestive trend”. The “improvement in function, early (first 3 days) versus full 6-day treatment, LYZ.NS and LYZ.S assays” value ([4]; ENR+CD, maximal validated dose) was “significantly (adj. p<0.05) lower improvement in function with early treatment versus full”, the “ATP alone, early versus full treatment” value [5] was “no difference in ATP alone” and the “LYZ.NS reading versus ENR+DMSO” value [6] was “significantly lower LYZ.NS”.

Source: US20200237852A1, “Small Molecule Enhancers of Paneth Cell Function and Differentiation” (Massachusetts Institute of Technology, priority 2019, published 2020)
